According to PubChem BioAssay AID248 (DTP/NCI, 2004):
Several values for one entry are separate records, joined by “and”; a condition that tells them apart may be missing. Identical values can stand only once. Toxic doses and inconclusive results are not listed.

System: L1210 leukemia ip in BDF1 mice, survival T/C
Assay: NCI In Vivo Anticancer Drug Screen. Data for tumor model L1210 Leukemia (intraperitoneal) in B6D2F1 (BDF1) mice
Conditions: endpoint: mean survival time, higher = longer survival
How it was run: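 Tumor was transplanted into mice, which were then dosed with test compound or vehicle alone. Survival was recorded for each group, and the treated figure was expressed relative to the control figure.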

[1] = dose: 50.0 mg/kg/injection, schedule: Q01DX001 (ip), vehicle: carboxymethylcellulose (CMC)
[2] = dose: 100.0 mg/kg/injection, schedule: Q01DX001 (ip), vehicle: carboxymethylcellulose (CMC)
[3] = dose: 200.0 mg/kg/injection, schedule: Q01DX001 (ip), vehicle: carboxymethylcellulose (CMC)
[4] = dose: 400.0 mg/kg/injection, schedule: Q01DX001 (ip), vehicle: carboxymethylcellulose (CMC)
[5] = dose: 100.0 mg/kg/injection, schedule: Q01DX001 (ip), vehicle: Klucel (hydroxypropylcellulose) (HPC)
[6] = dose: 200.0 mg/kg/injection, schedule: Q01DX001 (ip), vehicle: Klucel (hydroxypropylcellulose) (HPC)
[7] = dose: 400.0 mg/kg/injection, schedule: Q01DX001 (ip), vehicle: Klucel (hydroxypropylcellulose) (HPC)
[8] = dose: 100.0 mg/kg/injection, schedule: Q04DX003 (ip), vehicle: saline
[9] = dose: 200.0 mg/kg/injection, schedule: Q04DX003 (ip), vehicle: saline
[10] = dose: 400.0 mg/kg/injection, schedule: Q04DX003 (ip), vehicle: saline
[11] = dose: 50.0 mg/kg/injection, schedule: Q01DX009 (ip), vehicle: saline with Tween-80
[12] = dose: 100.0 mg/kg/injection, schedule: Q01DX009 (ip), vehicle: saline with Tween-80
[13] = dose: 200.0 mg/kg/injection, schedule: Q01DX009 (ip), vehicle: saline with Tween-80
[14] = dose: 10.0 mg/kg/injection, schedule: Q01DX001 (ip), vehicle: saline
[15] = dose: 20.0 mg/kg/injection, schedule: Q01DX001 (ip), vehicle: saline
[16] = dose: 40.0 mg/kg/injection, schedule: Q01DX001 (ip), vehicle: saline
[17] = dose: 100.0 mg/kg/injection, schedule: Q01DX009 (ip), vehicle: Klucel (hydroxypropylcellulose) (HPC)
[18] = dose: 100.0 mg/kg/injection, schedule: Q04DX003 (ip), vehicle: Klucel (hydroxypropylcellulose) (HPC)
[19] = dose: 100.0 mg/kg/injection, schedule: Q04DX003 (ip), vehicle: saline with Tween-80
[20] = dose: 200.0 mg/kg/injection, schedule: Q04DX003 (ip), vehicle: saline with Tween-80
[21] = dose: 400.0 mg/kg/injection, schedule: Q04DX003 (ip), vehicle: saline with Tween-80

Ic1ccc(N=Cc2cccs2)cc1
T/C [1]: 100 % of control
T/C [2]: 94 % of control
T/C [3]: 92 % of control
T/C [4]: 94 % of control

O=C1C=C/C(=N/S(=O)(=O)c2ccccc2)c2ccccc21
T/C (dose: 6.0 mg/kg/injection, schedule: Q01DX009 (ip), vehicle: DMSO): 106 % of control
T/C (dose: 12.0 mg/kg/injection, schedule: Q01DX009 (ip), vehicle: DMSO): 88 % of control
T/C (dose: 25.0 mg/kg/injection, schedule: Q01DX009 (ip), vehicle: DMSO): 86 % of control
T/C (dose: 25.0 mg/kg/injection, schedule: Q04DX003 (ip), vehicle: DMSO): 94 % of control
T/C (dose: 50.0 mg/kg/injection, schedule: Q04DX003 (ip), vehicle: DMSO): 89 % of control
T/C (dose: 100.0 mg/kg/injection, schedule: Q04DX003 (ip), vehicle: DMSO): 106 % of control and 88 % of control

OC1/C(=C/c2ccco2)CCC2CCCCC21 (stereo not given)
T/C [5]: 101 % of control
T/C [6]: 98 % of control
T/C [7]: 90 % of control

COc1cccc([Si](C)(C)[Si](C)C)c1
T/C [8]: 98 % of control
T/C [9]: 110 % of control
T/C [10]: 96 % of control

CN1CCCC(OC(=O)N(C)C)C1 (stereo not given)
T/C [8]: 98 % of control
T/C [9]: 98 % of control
T/C [10]: 98 % of control

CCN1C(=O)CN(CCN2CC(=O)N(c3ccccc3)C2=S)C1=S
T/C [11]: 94 % of control
T/C [12]: 102 % of control
T/C [13]: 90 % of control

Nc1ccc(S(=O)(=O)NCc2nccs2)cc1
T/C (dose: 5.0 mg/kg/injection, schedule: Q01DX001 (ip), vehicle: saline): 102 % of control
T/C [14]: 100 % of control
T/C [15]: 100 % of control
T/C [16]: 102 % of control
T/C (dose: 80.0 mg/kg/injection, schedule: Q01DX001 (ip), vehicle: saline): 100 % of control

COc1ccc(CN2CC(C)N(N)C(C)C2)cc1 (stereo not given)
T/C (dose: 100.0 mg/kg/injection, schedule: Q01DX005 (ip), vehicle: saline): 98 % of control

O=C1C2C(C(=O)N1c1ccccc1)C1c3ccccc3C2C2CCCCN21 (stereo not given)
T/C (dose: 25.0 mg/kg/injection, schedule: Q01DX009 (ip), vehicle: Klucel (hydroxypropylcellulose) (HPC)): 102 % of control
T/C (dose: 50.0 mg/kg/injection, schedule: Q01DX009 (ip), vehicle: Klucel (hydroxypropylcellulose) (HPC)): 105 % of control
T/C [17]: 92 % of control
T/C [18]: 92 % of control

CCCCCCCCCCCCCCCCCC(=O)CS(C)=O (stereo not given)
T/C [18]: 94 % of control
T/C (dose: 200.0 mg/kg/injection, schedule: Q04DX003 (ip), vehicle: Klucel (hydroxypropylcellulose) (HPC)): 91 % of control
T/C (dose: 400.0 mg/kg/injection, schedule: Q04DX003 (ip), vehicle: Klucel (hydroxypropylcellulose) (HPC)): 96 % of control

CCOC(=O)C(O)(C#CC(C)C)C1CCCCC1 (stereo not given)
T/C (dose: 100.0 mg/kg/injection, schedule: Q01DX001 (ip), vehicle: other): 94 % of control
T/C (dose: 200.0 mg/kg/injection, schedule: Q01DX001 (ip), vehicle: other): 89 % of control
T/C (dose: 400.0 mg/kg/injection, schedule: Q01DX001 (ip), vehicle: other): 94 % of control

CCCCNC(c1ccccc1)=[N+]1CCCCC1
T/C (dose: 12.5 mg/kg/injection, schedule: Q04DX002 (ip), vehicle: saline): 92 % of control
T/C (dose: 25.0 mg/kg/injection, schedule: Q04DX002 (ip), vehicle: saline): 98 % of control

COc1ccc([N+](=O)[O-])c2conc12
T/C [11]: 95 % of control
T/C [12]: 98 % of control
T/C [13]: 103 % of control

c1ccc(Nc2nnc(Nc3ccccn3)c3ccccc23)nc1
T/C [19]: 95 % of control
T/C [20]: 93 % of control
T/C [21]: 96 % of control

CCN(CC)c1ccc(N=Nc2ccccc2)cc1
T/C [1]: 93 % of control
T/C [2]: 86 % of control
T/C [3]: 96 % of control
T/C [4]: 98 % of control

CC(C)C(C)/C=C/C(C)C1CCC2C3CCC4CC(O)CCC4(C)C3CCC12C (stereo not given)
T/C [5]: 90 % of control
T/C [6]: 97 % of control

BrC1C2CC(c3ccccc32)C1Br (stereo not given)
T/C [12]: 101 % of control
T/C [19]: 94 % of control
T/C [13]: 91 % of control
T/C [20]: 93 % of control
T/C (dose: 400.0 mg/kg/injection, schedule: Q01DX009 (ip), vehicle: saline with Tween-80): 98 % of control
T/C [21]: 95 % of control

C/C(=N\N)C(=O)S(=O)(=O)c1c(C)cc(C)cc1C
T/C [5]: 97 % of control
T/C [6]: 97 % of control
T/C [7]: 101 % of control

COC1OCC(O)C(NC(=O)N(C)N=O)C1O (stereo not given)
T/C (dose: 6.25 mg/kg/injection, schedule: Q01DX009 (ip), vehicle: saline): 117 % of control
T/C (dose: 12.5 mg/kg/injection, schedule: Q01DX009 (ip), vehicle: saline): 118 % of control
T/C (dose: 16.5 mg/kg/injection, schedule: Q04DX003 (ip), vehicle: saline): 108 % of control
T/C (dose: 25.0 mg/kg/injection, schedule: Q01DX009 (ip), vehicle: saline): 150 % of control and 154 % of control
T/C (dose: 27.3 mg/kg/injection, schedule: Q04DX003 (ip), vehicle: saline): 112 % of control
T/C (dose: 33.0 mg/kg/injection, schedule: Q04DX003 (ip), vehicle: saline): 118 % of control
T/C (dose: 37.5 mg/kg/injection, schedule: Q01DX009 (ip), vehicle: citric acid): 152 % of control
T/C (dose: 75.0 mg/kg/injection, schedule: Q01DX009 (ip), vehicle: citric acid): 185 % of control
T/C (dose: 100.0 mg/kg/injection, schedule: Q01DX009 (ip), vehicle: saline): 177 % of control and 224 % of control
T/C (dose: 150.0 mg/kg/injection, schedule: Q04DX003 (ip), vehicle: saline): 167 % of control
T/C (dose: 200.0 mg/kg/injection, schedule: Q01DX009 (ip), vehicle: saline): 92 % of control

CC(=O)NC(c1ccccc1)C(C)C (stereo not given)
T/C (dose: 100.0 mg/kg/injection, schedule: Q01DX001 (ip), vehicle: saline with Tween-80): 92 % of control
T/C (dose: 200.0 mg/kg/injection, schedule: Q01DX001 (ip), vehicle: saline with Tween-80): 103 % of control

Nc1c(Cl)nc(Cl)nc1C(F)(F)F
T/C (dose: 29.0 mg/kg/injection, schedule: Q01DX Z (ip), vehicle: methylcellulose (MC)): 92 % of control
T/C (dose: 44.0 mg/kg/injection, schedule: Q01DX Z (ip), vehicle: methylcellulose (MC)): 95 % of control

O=C1C=CC(=O)N1c1cc(Cl)c(Cl)cc1Cl
T/C [14]: 97 % of control
T/C [15]: 87 % of control
T/C [16]: 95 % of control

O=C(OCc1ccccc1)C1CCCN1Cc1ccc2c(c1)OCO2 (stereo not given)
T/C (dose: 100.0 mg/kg/injection, schedule: Q01DX001 (ip), vehicle: saline): 93 % of control
T/C (dose: 400.0 mg/kg/injection, schedule: Q01DX001 (ip), vehicle: saline): 96 % of control

CC(C)(O)C(Cl)S(=O)c1ccccc1 (stereo not given)
T/C (dose: 75.0 mg/kg/injection, schedule: Q03DX002 (ip), vehicle: saline with Tween-80): 113 % of control
T/C (dose: 300.0 mg/kg/injection, schedule: Q03DX002 (ip), vehicle: saline with Tween-80): 117 % of control

Cc1nc(N)c2nonc2n1
T/C [12]: 89 % of control

CCOC(=O)c1cnc(NN)nc1NCc1ccccc1
T/C [11]: 93 % of control
T/C [12]: 89 % of control
T/C [19]: 87 % of control
T/C [13]: 98 % of control
T/C [20]: 96 % of control

COC(=O)c1ccccc1NC(=O)c1ccco1
T/C [17]: 97 % of control
T/C (dose: 200.0 mg/kg/injection, schedule: Q01DX009 (ip), vehicle: Klucel (hydroxypropylcellulose) (HPC)): 96 % of control
T/C (dose: 400.0 mg/kg/injection, schedule: Q01DX009 (ip), vehicle: Klucel (hydroxypropylcellulose) (HPC)): 91 % of control

O=C1CC(=O)N(Cc2ccccc2)C(=O)N1Cc1ccccc1
T/C [2]: 86 % of control
T/C [3]: 92 % of control
T/C [4]: 90 % of control
